Converted amounts (≈) assume the structure as drawn. Where a name gives a salt, the structure may show the parent alone. Read-outs that look alike come from different tables or passages of the source.
Columns and labels:
[1] = test system: E. coli HH 33779; assay: MIC in vitro; format: cell-based; conditions: Escherichia coli
Experimental: (§1) The compounds of Formula I have antibacterial activity against either Gram positive or Gram negative bacteria with minimum inhibitory concentrations (MIC's) in vitro from 0.4 to 200 μg/ml. Test results for 7-D-mandelamido-3-(5-sulfomethyl-1,3,4-thiadiazol-2-ylthiomethyl)-3-cephem-4-carboxylic acid, disodium salt, tetrahydrate (A) are: […]

[2] = test system: E. coli SK 12140; assay: MIC in vitro; format: cell-based; conditions: Escherichia coli
Experimental: as §1

[3] = test system: Kleb. pneumo. SK 4200; assay: MIC in vitro; format: cell-based; conditions: read-out: minimum inhibitory concentration (MIC)
Experimental: as §1

[4] = test system: S. aureus villaluz SK 70390; assay: MIC in vitro; format: cell-based; conditions: Staphylococcus aureus, read-out: minimum inhibitory concentration (MIC)
Experimental: as §1

[5] = test system: Proteus morgani 179; assay: MIC in vitro; format: cell-based; conditions: read-out: minimum inhibitory concentration (MIC)
Experimental: as §1

[6] = test system: Entero. cloacae HH 31254; assay: MIC in vitro; format: cell-based; conditions: Enterobacter cloacae, HH31254, read-out: minimum inhibitory concentration (MIC)
Experimental: as §1

[7] = test system: S. aureus HH 127; assay: MIC in vitro; format: cell-based; conditions: Staphylococcus aureus
Experimental: as §1

[8] = test system: S. aureus SK 23390; assay: MIC in vitro; format: cell-based; conditions: Staphylococcus aureus
Experimental: as §1

[9] = test system: Entero. aerog. ATCC 13048; assay: MIC in vitro; format: cell-based; conditions: read-out: minimum inhibitory concentration (MIC)
Experimental: as §1

[10] = test system: Kleb. pneumo. SK 1200; assay: MIC in vitro; format: cell-based; conditions: read-out: minimum inhibitory concentration (MIC)
Experimental: as §1

[11] = test system: Pseudo. aeru. HH 63; assay: MIC in vitro; format: cell-based; conditions: read-out: minimum inhibitory concentration (MIC)
Experimental: as §1

[12] = test system: Strep. Faecalis HH 34358; assay: MIC in vitro; format: cell-based; conditions: Enterococcus faecalis, read-out: minimum inhibitory concentration (MIC)
Experimental: as §1

[13] = test system: Salmonella ATCC 12176; assay: MIC in vitro; format: cell-based; conditions: ATCC12176, read-out: minimum inhibitory concentration (MIC)
Experimental: as §1

[14] = test system: Proteus mirabilis PN-444; assay: MIC in vitro; format: cell-based
Experimental: as §1

[15] = test system: Serratia marc. ATCC 13880; assay: MIC in vitro; format: cell-based; conditions: ATCC13880, read-out: minimum inhibitory concentration (MIC)
Experimental: as §1

[16] = test system: Kleb. pneumo.; assay: ED50 in infected mice; format: in vivo; conditions: two determinations; for ED50: Mus musculus, read-out: ED50 in mice against Kleb. pneumo.
Experimental: (s.c.); 25 and 10 mg/kg against E. coli as well as 8.7 and 8.5 mg/kg against Kleb. pneumo. (p.o.).

[17] = test system: E. coli; assay: ED50 in infected mice; format: in vivo; conditions: two determinations; for ED50: Escherichia coli, read-out: ED50 in mice against E. coli
[18] = HH33779, in vitro, E. coli HH 33779, read-out: minimum inhibitory concentration (MIC)
[19] = SK12140, in vitro, E. coli SK 12140, read-out: minimum inhibitory concentration (MIC)
[20] = in vitro, S. aureus villaluz SK 70390
[21] = HH127, in vitro, S. aureus HH 127, read-out: minimum inhibitory concentration (MIC)
[22] = SK23390, in vitro, S. aureus SK 23390, read-out: minimum inhibitory concentration (MIC)
[23] = PN444, in vitro, Proteus mirabilis PN-444, read-out: minimum inhibitory concentration (MIC)

Row | SMILES | MIC [1, 18] [µg/mL] | MIC [2, 19] [µg/mL] | MIC [3] [µg/mL] | MIC [4, 20] [µg/mL] | MIC ([5]; in vitro, Proteus morgani 179) [µg/mL] | MIC [6] [µg/mL] | MIC [7, 21] [µg/mL] | MIC [8, 22] [µg/mL] | MIC [9] [µg/mL] | MIC [10] [µg/mL] | MIC [11] [µg/mL] | MIC [12] [µg/mL] | MIC [13] [µg/mL] | MIC [14, 23] [µg/mL] | MIC [15] [µg/mL] | ED50 ([16]; po) [mg/kg] | ED50 ([16]; sc) [mg/kg] | ED50 in mice against Kleb. pneumo. ([16]; p.o.) [mg/kg] | ED50 ([17]; sc) [mg/kg] | other results
1 | Cc1nnc(SCC2=C(C(=O)O)N3C(=O)[C@@H](NC(=O)Cn4cnnn4)[C@H]3SC2)s1 [Cefazolin] | 1.6 (≈ 3.52 µM) | 0.8 (≈ 1.76 µM) | 1.6 (≈ 3.52 µM) | 100 (≈ 220 µM) | > 200 | 0.8 (≈ 1.76 µM) | 0.4 (≈ 0.88 µM) | 0.2 (≈ 0.44 µM) | 1.6 (≈ 3.52 µM) | 0.8 (≈ 1.76 µM) | > 200 | 6.3 (≈ 13.9 µM) | 0.8 (≈ 1.76 µM) | 3.1 (≈ 6.82 µM) | > 200 | – | – | – | – | –
2 | CC1=C(C(=O)O)N2C(=O)[C@@H](NC(=O)[C@H](N)c3ccccc3)[C@H]2SC1 [Cephalexin] | – | – | – | – | – | – | – | – | – | – | – | – | – | – | – | 19 | 16.5 | 10 | 12.5 | ED50 ([17]; po): 21.5 mg/kg; ED50 in mice against E. coli ([17]; p.o.): 18 mg/kg
3 | O=C(O)C1=C(CSc2nnc(CS(=O)(=O)O)s2)CS[C@@H]2[C@H](NC(=O)[C@H](O)c3ccccc3)C(=O)N12 [Compound A, 7-D-mandelamido-3-(5-sulfomethyl-1,3,4-thiadiazol-2-ylthiomethyl)-3-cephem-4-carboxylic acid, disodium salt, tetrahydrate] | 0.8 | 0.4 | 0.4 | 200 | 1.6 | 0.4 | 1.6 | 0.4 | 1.6 | 0.4 | > 200 | 25 | 0.4 | 0.4 | 25 | 8.7 | 0.78 | 8.5 | 0.3 | ED50 in mice against Kleb. pneumo. ([16]; s.c.): 0.62 mg/kg; ED50 in mice against E. coli ([17]; s.c.): 0.39 mg/kg
4 | CC(=O)OCC1=C(C(=O)O)N2C(=O)[C@@H](NC(=O)Cc3cccs3)[C@H]2SC1 [Cephalothin] | – | – | 1.6 (≈ 4.04 µM) | – | – | 6.3 (≈ 15.9 µM) | – | – | 12.5 (≈ 31.5 µM) | 1.6 (≈ 4.04 µM) | > 200 | 6.3 (≈ 15.9 µM) | 1.6 (≈ 4.04 µM) | – | > 200 | – | – | – | – | MIC ([1]; HH33779, read-out: minimum inhibitory concentration (MIC)): 6.3 µg/mL (≈ 15.9 µM); MIC ([2]; SK12140, read-out: minimum inhibitory concentration (MIC)): 3.1 µg/mL (≈ 7.82 µM); MIC [4]: 50 µg/mL (≈ 126 µM); MIC [5]: > 200 µg/mL; MIC ([7]; HH127, read-out: minimum inhibitory concentration (MIC)): 0.4 µg/mL (≈ 1.01 µM); MIC ([8]; SK23390, read-out: minimum inhibitory concentration (MIC)): 0.1 µg/mL (≈ 0.252 µM); MIC ([14]; Proteus mirabilis, PN444, read-out: minimum inhibitory concentration (MIC)): 0.8 µg/mL (≈ 2.02 µM)
